Experimental data from patent US20090325805A1, “Cationic surfactant based adjuvant systems for some herbicides that increase pH, herbicide solubility and performance” (priority 2004, published 2009).

Columns and labels:
Type in all cases: in vivo
[1] = system: Downy Brome (Bromus tectorum); experiment: Herbicide efficacy (percent control) on downy brome with differing spray adjuvants (Table 2); set-up: concentration or dose not given beside the values; details: for Downy Brome % Control 21 DAT: 21 days after treatment; for Downy Brome % Control 68 DAT: 68 days after treatment
Description: (§1) This effect has been seen with both wild oat (Avena fatua) Table 1 and downy brome (Bromus tectorum) Table 2. The increase in activity has been seen with different formulation of tallow amine cat-ionic surfactant and a pH increasing additive (Table 3). [table]

[2] = system: Downy Brome (Bromus tectorum); experiment: Sulfosulfuron efficacy (percent control) on downy brome with differing tallow amine adjuvant formulations (Table 3); set-up: concentration or dose not given beside the values; details: for Downy Brome % Control 17 DAT: 17 days after treatment; for Downy Brome % Control 87 DAT: 87 days after treatment
Description: as §1

Wild Oat (Avena fatua) = experiment: Post-emergence herbicide efficacy (percent control) on wild oats with differing spray adjuvants; details: Sulfosulfuron 0.66 oz/Acre; for Wild Oat % Control 14 DAT: 14 days after treatment; for Wild Oat % Control 28 DAT: 28 days after treatment
Description: This invention pertains to the unexpected increase in activity seen when sulfosulfuron was applied with a cat-ionic surfactant plus a pH adjustor that increased the pH to a pH of 9-10.5 (Table 1). As opposed to the increase in activity that was predicted to happen when applied with an oil based or non-ionic surfactant with a pH adjustor as taught by Nalewaja et. al. This effect has been seen with both wild oat (Avena fatua) Table 1 and downy brome (Bromus tectorum) Table 2. The increase in activity has been seen with different formulation of tallow amine cat-ionic surfactant and a pH increasing additive (Table 3). [table]

[3] = adjuvant AQ117 (tallow amine plus aqua ammonia)
[4] = adjuvant R-11 (non-ionic surfactant)
[5] = adjuvant AQ103 (tallow amine plus aqua ammonia)
[6] = adjuvant AQ104 (tallow amine plus aqua ammonia)
[7] = adjuvant AQ118 (tallow amine plus aqua ammonia)
[8] = adjuvant Quad 7 (crop oil plus nitrogen fertilizer)

Row | SMILES | Downy Brome % Control 21 DAT [1, 3] | Downy Brome % Control 68 DAT [1, 3] | Downy Brome % Control 21 DAT [1, 4] | Downy Brome % Control 68 DAT [1, 4] | Downy Brome % Control 17 DAT [2, 5] | Downy Brome % Control 87 DAT [2, 5] | Downy Brome % Control 17 DAT [2, 6] | Downy Brome % Control 87 DAT [2, 6] | Downy Brome % Control 17 DAT [2, 4] | Downy Brome % Control 87 DAT [2, 4] | Wild Oat % Control 14 DAT (Wild Oat (Avena fatua); [7]) | Wild Oat % Control 28 DAT (Wild Oat (Avena fatua); [7]) | Wild Oat % Control 14 DAT (Wild Oat (Avena fatua); [8]) | Wild Oat % Control 28 DAT (Wild Oat (Avena fatua); [8])
1 | CCCOc1nn(C(=O)[N-]S(=O)(=O)c2ccccc2C(=O)OC)c(=O)n1C.[Na+] [Propoxycarbazone, Propoxycarbazone-sodium] | 73% | 90% | 52% | 67% | – | – | – | – | – | – | – | – | – | –
2 | CCS(=O)(=O)c1nc2ccccn2c1S(=O)(=O)NC(=O)Nc1nc(OC)cc(OC)n1 [Sulfosulfuron] | 78% | 97% | 52% | 62% | 30% | 92% | 30% | 90% | 5% | 77% | 75% | 98% | 48% | 62%
